According to patent publication US20190055576A1, “USE OF HERBICIDE-TOLERANT PROTEIN” (BEIJING DABEINONG TECHNOLOGY GROUP CO., LTD., priority 2016, published 2019):

System: transgenic Arabidopsis thaliana T1 plants (ALT-1-01, ALT-2-01, ALT-3-01; cytoplasmic or chloroplastic)
Experiment: Herbicide tolerance of transgenic Arabidopsis thaliana T1 plants expressing thifensulfuron hydrolase, resistance classes counted after spraying
Type: in vivo
Settings: for Highly resistant (number of plants with growth status consistent with blank solvent group) / Moderately resistant (number of plants with bolting height less than 1/2 of blank solvent group) / Non-resistant (number of plants dead) / Poorly resistant (number of plants still not capable of bolting): 1-fold field concentration (g ai/ha: Sulfometuron-methyl 30, iodosulfuron-methyl 10, mesosulfuron 14, oxasulfuron 60), 14 days after spraying
Text: T1 transformants were initially selected from the background of untransformed seeds using a glufosinate selection scheme. About 40000 T1 seeds were screened, and 380 T1 positive transformants (PAT gene) were identified with a transformation efficiency of about 0.95%. The plants that were transformed with the recombinant expression vector DBN100632 were Arabidopsis thaliana plants having an ALT-1-01 nucleotide sequence located in the cytoplasm introduced (At cytoplasmic ALT-1-01), and the plants that were transformed with the recombinant expression vector DBN100631 were Arabidopsis thaliana plants having an ALT-1-01 nucleotide sequence located in the chloroplast introduced (At chloroplastic ALT-1-01); the plants that were transformed with the recombinant expression vector DBN100634 were Arabidopsis thaliana plants having an ALT-2-01 nucleotide sequence located in the cytoplasm introduced (At cytoplasmic ALT-2-01), and the plants that were transformed with the recombinant expression vector DBN100633 were Arabidopsis thaliana plants having an ALT-2-01 nucleotide sequence located in the chloroplast introduced (At chloroplastic ALT-2-01); and the plants that were transformed with the recombinant expression vector DBN100636 were Arabidopsis thaliana plants having an ALT-3-01 nucleotide sequence located in the cytoplasm introduced (At cytoplasmic ALT-3-01), and the plants that were transformed with the recombinant expression vector DBN100635 were Arabidopsis thaliana plants having an ALT-3-01 nucleotide sequence located in the chloroplast introduced (At chloroplastic ALT-3-01). The herbicide tolerance effects of At cytoplasmic ALT-1-01 T1 plants, At chloroplastic ALT-1-01 T1 plants, At cytoplasmic ALT-2-01 T1 plants, At chloroplastic ALT-2-01 T1 plants, At cytoplasmic ALT-3-01 T1 plants, At chloroplastic ALT-3-01 T1 plants and wild-type Arabidopsis thaliana plants on Sulfometuron-methyl were detected (14 days after sowing), respectively.
At cytoplasmic ALT-1-01 T1 plants, At chloroplastic ALT-1-01 T1 plants, At cytoplasmic ALT-2-01 T1 plants, At chloroplastic ALT-2-01 T1 plants, At cytoplasmic ALT-3-01 T1 plants, At chloroplastic ALT-3-01 T1 plants and wild-type Arabidopsis thaliana plants were sprayed with Sulfometuron-methyl (30 g ai/ha, 1-fold field concentration) and a blank solvent (water), respectively. Plants were counted for the resistance situations 14 days after spraying: those having a consistent growth status with the blank solvent (water) group after 14 days were classified as highly resistant plants, those having a bolting height less than ½ of that of the blank solvent (water) group after 14 days were classified as moderately resistant plants, those still not capable of bolting after 14 days were classified as poorly resistant plants, and those dead after 14 days were classified as non-resistant plants. Since each Arabidopsis thaliana T1 plant was an independent transformation event, a significant difference in individual T1 responses could be expected at a given dose.
At cytoplasmic ALT-1-01 T1 plants, At chloroplastic ALT-1-01 T1 plants, At cytoplasmic ALT-2-01 T1 plants, At chloroplastic ALT-2-01 T1 plants, At cytoplasmic ALT-3-01 T1 plants, At chloroplastic ALT-3-01 T1 plants and wild-type Arabidopsis thaliana plants in Example 4 were sprayed with iodosulfuron-methyl (10 g ai/ha, 1-fold field concentration), mesosulfuron (14 g ai/ha, 1-fold field concentration) and oxasulfuron (60 g ai/ha, 1-fold field concentration), respectively, in addition to Sulfometuron-methyl (30 g ai/ha, 1-fold field concentration) and the blank solvent (water). […]

[1] = At chloroplastic ALT-1-01 T1 plants
[2] = At chloroplastic ALT-2-01 T1 plants
[3] = At chloroplastic ALT-3-01 T1 plants
[4] = At cytoplasmic ALT-1-01 T1 plants
[5] = At cytoplasmic ALT-2-01 T1 plants
[6] = At cytoplasmic ALT-3-01 T1 plants

## COC(=O)c1ccccc1S(=O)(=O)NC(=O)Nc1nc(C)cc(C)n1 [Sulfometuron-methyl, 2-(4,6-dimethylpyrimidine-2-amino-formamido-sulfonyl) methyl benzoate]
[1]
  Highly resistant (number of plants with growth status consistent with blank solvent group): 27
  Moderately resistant (number of plants with bolting height less than 1/2 of blank solvent group): 0
  Non-resistant (number of plants dead): 1
  Poorly resistant (number of plants still not capable of bolting): 0
[2]
  Highly resistant (number of plants with growth status consistent with blank solvent group): 29
  Moderately resistant (number of plants with bolting height less than 1/2 of blank solvent group): 0
  Non-resistant (number of plants dead): 0
  Poorly resistant (number of plants still not capable of bolting): 1
[3]
  Highly resistant (number of plants with growth status consistent with blank solvent group): 27
  Moderately resistant (number of plants with bolting height less than 1/2 of blank solvent group): 0
  Non-resistant (number of plants dead): 1
  Poorly resistant (number of plants still not capable of bolting): 0
[4]
  Highly resistant (number of plants with growth status consistent with blank solvent group): 23
  Moderately resistant (number of plants with bolting height less than 1/2 of blank solvent group): 2
  Non-resistant (number of plants dead): 1
  Poorly resistant (number of plants still not capable of bolting): 1
[5]
  Highly resistant (number of plants with growth status consistent with blank solvent group): 24
  Moderately resistant (number of plants with bolting height less than 1/2 of blank solvent group): 0
  Non-resistant (number of plants dead): 3
  Poorly resistant (number of plants still not capable of bolting): 2
[6]
  Highly resistant (number of plants with growth status consistent with blank solvent group): 22
  Moderately resistant (number of plants with bolting height less than 1/2 of blank solvent group): 1
  Non-resistant (number of plants dead): 3
  Poorly resistant (number of plants still not capable of bolting): 1
Transgenic Arabidopsis thaliana T1 plants, 30 g ai/ha
  herbicide tolerance conferred by the thifensulfuron hydrolase (ALT-1, ALT-2 and ALT-3): conferred Sulfometuron-methyl herbicide tolerance to individual Arabidopsis thaliana plants
